One block for each molecule: values may come before it.
Tests used:
CNDP2 [1] = molecular target: T1, CNDP2 (Mus musculus, UniProt Q9D1A2); assay: In vitro synthase (condensation) activity, lysates of CNDP2-transfected HEK293T cells; assay type: biochemical; design: expressed in transfected cells; host or cells: HEK293T (lysate); conditions: role: substrate; for amino acid selectivity for the BHB-ylation reaction: amino acid 20 mM with BHB 20 mM
T1 sequence (Q9D1A2 1-475): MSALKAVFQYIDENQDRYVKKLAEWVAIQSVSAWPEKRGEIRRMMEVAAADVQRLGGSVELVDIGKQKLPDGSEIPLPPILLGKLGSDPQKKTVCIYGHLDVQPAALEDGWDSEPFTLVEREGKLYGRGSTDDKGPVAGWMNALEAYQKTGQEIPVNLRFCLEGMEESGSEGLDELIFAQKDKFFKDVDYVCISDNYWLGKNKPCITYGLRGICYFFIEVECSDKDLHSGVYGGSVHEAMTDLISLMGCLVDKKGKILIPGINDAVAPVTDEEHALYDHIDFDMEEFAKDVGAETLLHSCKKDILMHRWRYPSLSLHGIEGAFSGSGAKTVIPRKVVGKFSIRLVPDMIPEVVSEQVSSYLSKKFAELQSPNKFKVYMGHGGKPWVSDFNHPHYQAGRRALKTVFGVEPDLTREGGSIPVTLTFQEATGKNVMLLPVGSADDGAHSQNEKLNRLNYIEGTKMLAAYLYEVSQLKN
Experimental: In vitro enzyme activity assays. HEK293T cells were transfected with GFP, CNDP2 or CNDP2-E166A using PolyFect (Qiagen 301105) according to the manufacturer's instructions. The medium was changed one day post-transfection. After an additional 24 h, the cells were harvested in PBS, lysed by sonication and centrifuged (10 min at 15,000 rpm) to remove debris. Supernatant was collected and protein concentrations were adjusted. The in vitro reactions were conducted in Eppendorf tubes with 100 μL of 1 mg/mL protein and 20 mM substrates for keto amino acid synthase activity assays and. Reactions were incubated for 1 h at 37° C. and 20 μl of 1 M HCl were added to acidify the medium and to protonate keto amino acids. Reactions were vortexed and 400 μL of ethyl acetate were added to each reaction. Reactions were vortexed for 30 s to extract keto amino acids into the organic layer and centrifuged at 4° C. for 10 min at 15,000 r.p.m. A total of 300 μl from the top layer was transferred to a new Eppendorf tube and dried down under a stream of nitrogen. The residue was re-suspended in 150 μl of an 2:1:1 mixture of acetonitrile: methanol: water. The mixture was centrifuged at 4° C. for 10 min at 15,000 r.p.m. and the supernatant was transferred to a LC-MS vial.

[2] = Keto-Med study, plasma metabolites; assay type: in vivo; conditions: human; 4 weeks WFKD vs baseline
Experimental: (§1) Targeted metabolomics. Targeted measurements were performed using an Agilent 6470 triple quadrupole LC-MS instrument. MS analysis was performed using AJS in negative mode. The AJS source parameters were set as follows: the dry gas temperature was set at 250° C. with a gas flow of 12 l/min and the nebulizer pressure at 25 psi; the sheath gas temperature was set to 300° C. with the sheath gas flow set at 12 l/min; and the capillary voltage was set to 3,500 V. Separation of polar metabolites was performed as described above in the ‘Untargeted measurements of metabolites by LC-MS’ section. Multiple reaction monitoring was performed for the indicated metabolites with the listed dwell times, fragmentor voltage, collision energies, cell accelerator voltages and polarities. Quantification of the endogenous metabolite concentrations were performed by generating a standard curve with known concentrations of each metabolite. Metabolite standards were analyzed alongside the plasma samples using the same targeted triple quadrupole LC/MS method. A calibration standard curve generated from the metabolite standard concentrations and total peak areas were used to calculate the concentrations of each endogenous metabolite. The dilution of the plasma during the sample preparation was also taken into account for the quantification.
Keto-Med study. Keto-Med was a single-site, randomized, crossover, interventional trial comparing 2 metabolically distinct diets (well-formulated ketogenic diet, WFKD; and Mediterranean-plus diet, Med-Plus) among individuals with prediabetes and T2DM. Forty participants aged ≥18 years with prediabetes or T2DM followed the WFKD and the Med-Plus for 12 weeks each, in random order. Participants were randomly assigned into 1 of 2 different diet sequences: WFKD for 12 weeks (phase 1) and then the Med-Plus for 12 weeks (phase 2), or the opposite order. Ad libitum intake was advised, and participants were guided to follow 2 sets of dietary guidelines that shared 3 important similarities (incorporating nonstarchy vegetables and avoiding added sugars and refined grains) and 3 important differences (incorporating compared with avoiding legumes, fruits, and whole, intact grains). During the WFKD phase, participants were counseled to sustain nutritional ketosis by limiting carbohydrates to 20-50 g/day and keeping proteins to ~1.5 g/kg ideal body weight/day, with the remaining kcals coming from fats. Participants were also instructed to consume >3 servings/day of nonstarchy vegetables and maintain adequate mineral and fluid intake for the ketogenic state (sodium, 3-5 g/day; potassium, 3-4 g/day). […]

[3] = Human ketone ester supplementation study, plasma metabolites; assay type: in vivo; conditions: ketone ester drink cohort
Experimental: as §1
Human ketone ester supplementation study. Following screening, eligible subjects participated in a randomized, counter-balanced, double-blind, placebo-controlled crossover trial comparing BHB supplementation versus placebo, separated by a minimum of 2 days (ClinicalTrials.gov ID NCT04194450). Pre-menopausal women were tested in the follicular phase (days 3-9). Participants were asked to refrain from structured exercise and alcohol, limit physical activity, and follow a standardized diet (~50% carbohydrate, ~30% fat, ~20% protein) on the day before each trial. After refraining from medication use for 24 hours, participants reported to the Exercise, Metabolism and Inflammation Laboratory at the University of British Columbia-Okanagan in an overnight fasted state. Anthropometric measurements were obtained prior to insertion of an indwelling intravenous catheter into the antecubital vein for repeated blood sampling. Blood was collected into EDTA tubes (BD, 367863) and immediately centrifuged at 2000 rpm for 15 min and the top layer of plasma was aliquoted and frozen at −80 °C. After baseline (0) blood sample collection, the oral BHB supplement or placebo was consumed in liquid form (~30-65 mL). The BHB supplement (H.V.M.N®, USA) in the form of the ketone monoester (R)-3-hydroxybutyl (R)-3-hydroxybutyrate (AG®, TDeltaS, Oxford, UK) contained 0.4 g mL-1 BHB, natural flavoring, and <2% stevia leaf extract. The taste-matched placebo drink contained the same natural flavoring as the ketone supplement, stevia leaf extract, 5 mL of Bittrex stock (0.005 g of denatonium benzoate powder in 40 ml of water) and 1.5 mL of arrowroot stock (2 g of arrowroot powder in 50 ml of water) to match the bitter flavor and viscosity of the ketone monoester. Supplements were dispensed into opaque 80 ml bottles with volume calculated for 0.3 g BHB/kg body weight and labelled either A or B by a third-party researcher. Blinding was maintained until completion of data collection and analyses.

DIO mice = assay: Chronic administration in DIO mice: body weight and food intake; assay type: in vivo, mouse; conditions: for body weight, head-to-head keto amino acids: 5 days, vs vehicle
Experimental: General animal information. Animal experiments were performed according to procedure approved by the Stanford University Administrative Panel on Laboratory Animal Care (APLAC). Mice were maintained in 12-hr light-dark cycles at 22° C. and ~50% relative humidity and fed a standard irradiated rodent chow diet. Where indicated, high-fat diet (D12492, Research Diets 60% kcal from fat) and ketogenic diet (D06040601, Research Diets, 80% kcal fat/15% kcal protein/5% kcal carbohydrate) was used. Male C57BL/6J (stock no. 000664) and male C57BL/6J DIO mice (stock no. 380050) were purchased from Jackson Laboratory. Male C57BL/6NCrl (stock no. 027) mice were purchased from Charles River Laboratory. Whole body CNDP2-KO mice (catalog number, C57BL/6NCrl-Cndp2em1 (IMPC) Mbp/Mmucd, RRID: MMRRC_043492-UCD) were obtained from the Mutant Mouse Regional Resource Center, a NCRR-NIH funded strain repository. For in vivo injection of mice with metabolites, compounds were dissolved in 18:1:1 (by volume) of saline/Kolliphor EL (Sigma Aldrich)/DMSO. Compounds were administered to mice daily via intraperitoneal injections at 5 μl/g body weight at the indicated doses. For all injection experiments, mice were mock injected with the vehicle for 3-5 days until body weights have stabilized. Sample sizes were determined on the basis of previous experiments using similar methodologies. For metabolite administration experiments, mice were randomly assigned to treatment groups. Experimenters were not blinded to groups.

CNDP2 [4] = molecular target: T1, CNDP2; assay: Tissue enzyme activity, WT or CNDP2-KO mouse tissue lysates; assay type: biochemical; conditions: role: product, BHB 20 mM + amino acid 20 mM; for synthesis activity in WT kidney and gut: 1 h, 37° C
Experimental: (§2) Tissue enzyme activity assays. Mouse tissues were mixed with cold PBS and homogenized using a Benchmark BeadBlaster Homogenizer at 4 °C. Protein concentrations were adjusted and the resulting crude was filtered through a 0.45-μm filter to remove insoluble materials. The in vitro reactions were conducted in Eppendorf tubes with 200 μg protein and incubation with the corresponding substrates at 37° C. for 1 hour. After that time, 10 μl of HCl and 400 μl of ethyl acetate were added in the BHB and lactate reactions and the samples were vortexed for 30 s. Reactions were centrifuged at 4° C. for 10 min at 15,000 r.p.m. and total of 300 μl from the top layer was transferred to a new Eppendorf tube and dried down under a stream of nitrogen. The residue was re-suspended in 100 μl of an 2:1:1 mixture of acetonitrile: methanol: water. The mixture was centrifuged at 4° C. for 10 min at 15,000 r.p.m. and the supernatant was transferred to a LC-MS vial. For carnosine reactions, the reactions were not acidified and were directly quenched with 300 μl of an 2:1:1 mixture of acetonitrile: methanol: water after the 1 h incubation and vortexed for 30 s. The mixture was centrifuged at 4° C. for 10 min at 15,000 r.p.m. and the supernatant was transferred to a LC-MS vial.

CNDP2 [5] = molecular target: T1, CNDP2; assay: Carnosine hydrolysis (carnosinase activity) in WT or CNDP2-KO mouse tissue lysates; assay type: biochemical; conditions: role: substrate, 10 mM carnosine
Experimental: as §2

Structure (SMILES): C[C@@H](O)CC(=O)N[C@@H](CCC(N)=O)C(=O)O [Keto-Gln]
- induction of plasma keto amino acids on WFKD [2]: Robust induction
- induction by ketone ester drink [3]: had not been observed to be induced by ketone ester drink

Structure (SMILES): CC(O)CC(=O)N[C@@H](Cc1c[nH]cn1)C(=O)O (some centres unmarked) [BHB-His]
- food intake and body weight, related metabolites and dipeptides (DIO mice; 50 mg/kg IP, 9 days): failed to reduce food intake or body weight

Structure (SMILES): C[C@@H](O)CC(=O)N[C@H](C(=O)O)[C@@H](C)O [Keto-Thr]
- induction of plasma keto amino acids on WFKD [2]: Robust induction
- induction by ketone ester drink [3]: had not been observed to be induced by ketone ester drink

Structure (SMILES): N[C@@H](Cc1ccccc1)C(=O)O [phenylalanine, reference compound]
- amino acid selectivity for the BHB-ylation reaction (CNDP2 [1]): CNDP2 catalyzed BHB-ylation
- body weight and food intake, conjugate vs components (DIO mice; 50 mg/kg/day IP, BHB or phenylalanine at the same doses, 9 days): without effect

Structure (SMILES): CSCC[C@H](NC(=O)CC(C)O)C(=O)O (some centres unmarked) [BHB-Met, N-betahydroxybutyryl-methionine]
- BHB-amino acid synthesis activity in CNDP2-KO kidney and gut (CNDP2 [4]): largely abolished
- synthesis activity in WT kidney and gut (CNDP2 [4]): highest BHB-amino acid synthesis activity
- body weight, head-to-head keto amino acids (DIO mice; 50 mg/kg/day IP): effective in suppressing body weight

Structure (SMILES): NCCC(=O)N[C@@H](Cc1cnc[nH]1)C(=O)O [carnosine]
- carnosine hydrolysis across tissues (CNDP2 [5]): highest activity in liver and quadriceps and little activity in the kidney, gut, and brain
- carnosinase activity, effect of CNDP2 ablation (CNDP2 [5]; CNDP2-KO vs WT): not sensitive to genetic ablation of CNDP2

Structure (SMILES): CC(C)C[C@H](NC(=O)CC(C)O)C(=O)O (some centres unmarked) [BHB-Leu, N-betahydroxybutyryl-leucine]
- BHB-amino acid synthesis activity in CNDP2-KO kidney and gut (CNDP2 [4]): largely abolished
- synthesis activity in WT kidney and gut (CNDP2 [4]): highest BHB-amino acid synthesis activity
- body weight, head-to-head keto amino acids (DIO mice; 50 mg/kg/day IP): effective in suppressing body weight

Continued, values first:

- amino acid selectivity for the BHB-ylation reaction (CNDP2 [1]): CNDP2 catalyzed BHB-ylation
Structure (SMILES): CC(C)[C@H](N)C(=O)O [valine]

- amino acid selectivity for the BHB-ylation reaction (CNDP2 [1]): CNDP2 catalyzed BHB-ylation
Structure (SMILES): CC(C)C[C@H](N)C(=O)O [leucine]

- amino acid selectivity for the BHB-ylation reaction (CNDP2 [1]): CNDP2 catalyzed BHB-ylation
Structure (SMILES): CC[C@H](C)[C@H](N)C(=O)O [isoleucine]

- CNDP2-dependent condensation activity with C4-hydroxycarboxylic acid isomers (CNDP2 [1]; with phenylalanine): not detected
Structure (SMILES): CC(CO)C(=O)O (centres unmarked) [3-HIB, 3-hydroxisobutyric acid]

- product formed with lactate and phenylalanine as only substrates (CNDP2 [1]; lactate alone with 20 mM phenylalanine): exclusive production of Lac-Phe
Structure (SMILES): C[C@H](O)C(=O)O [lactate]
